Measured values reported in paper PMC9189076 (Oncogene, 2022).

Key:
[1] = target: T1, WDR5 (Homo sapiens, UniProt P61964); experiment: Isothermal titration calorimetry; assay type: binding; conditions: for binding to WDR5 (ITC, in words): MS169 compared to MS40
[2] = target: CRBN's C-terminal thalidomide binding domain (CRBN-TBD) (Homo sapiens, UniProt Q96SW2); experiment: ITC, binding to CRBN thalidomide-binding domain
[3] = tested on: H3K4me2; experiment: Global histone methylation immunoblotting in MV4; assay type: cell-based, human; conditions: MV4;11 cells, 0.5 μM, 4 days
[4] = tested on: MV4;11 cells; experiment: RNA-seq transcriptomic profiling in MV4; assay type: cell-based, human
[5] = target: T1, WDR5; conditions: five lines of MLL-r AML and eight lines of breast cancer, 18 h
[6] = tested on: IKZF1 and IKZF3; experiment: IKZF1/IKZF3 degradation by immunoblotting in cells; assay type: cell-based, human; conditions: MV4;11, RS4;11 and other cell lines
[7] = tested on: MLL-AF9 + AML PDX tumors; experiment: MLL-AF9+ AML PDX subcutaneous xenograft efficacy; assay type: in vivo, NSG-SGM3 mice; conditions: i.p. once a day, 5 days per week; MS40 100 mg/kg, MS169 34 mg/kg, MS40N2 100 mg/kg
[8] = Compound concentrations in plasma and tumor of PDX-bearing mice; assay type: in vivo, NSG-SGM3 mice; conditions: two hours post last dose; MS40 100 mg/kg, MS169 34 mg/kg, MS40N2 100 mg/kg
[9] = target: LIMD1 (Homo sapiens, UniProt Q9UGP4); experiment: LIMD1 degradation by immunoblotting in MV4; assay type: cell-based; conditions: MV4;11 and RS4;11 cells, 0.5 μM, 18 h
Sequence of LIMD1 (Q9UGP4 whole entry): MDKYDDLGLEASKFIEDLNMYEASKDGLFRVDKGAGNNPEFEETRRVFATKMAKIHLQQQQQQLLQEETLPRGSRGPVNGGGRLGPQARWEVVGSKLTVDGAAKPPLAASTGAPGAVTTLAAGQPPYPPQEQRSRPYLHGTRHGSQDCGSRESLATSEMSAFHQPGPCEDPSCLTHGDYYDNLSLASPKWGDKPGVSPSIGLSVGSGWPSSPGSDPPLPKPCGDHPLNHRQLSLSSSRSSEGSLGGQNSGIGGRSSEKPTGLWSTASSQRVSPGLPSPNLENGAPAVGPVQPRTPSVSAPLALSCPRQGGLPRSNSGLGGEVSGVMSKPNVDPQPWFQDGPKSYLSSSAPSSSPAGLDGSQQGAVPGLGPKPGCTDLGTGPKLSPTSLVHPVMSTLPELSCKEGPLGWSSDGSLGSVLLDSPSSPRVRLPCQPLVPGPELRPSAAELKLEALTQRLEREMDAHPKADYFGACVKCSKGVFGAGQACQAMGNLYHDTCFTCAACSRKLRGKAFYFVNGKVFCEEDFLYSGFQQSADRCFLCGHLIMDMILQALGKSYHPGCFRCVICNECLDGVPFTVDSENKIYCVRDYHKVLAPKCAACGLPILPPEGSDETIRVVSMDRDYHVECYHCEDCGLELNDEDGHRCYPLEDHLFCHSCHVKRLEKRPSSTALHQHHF

[10] = tested on: BT549 and SUM149 breast cancer cells; experiment: Anti-proliferative effect in breast cancer cells; assay type: cell-based; conditions: MS40 relative to MS40N1 and OICR-9429
[11] = target: CRBN-TBD; conditions: read-out: KD, affinity to CRBN-TBD; cited from earlier work
[12] = target: VHL–Elongin C–Elongin B ternary complex (VCB) (Homo sapiens, UniProt P40337); experiment: ITC, binding to VHL E3 ligase complex; conditions: compared to MS40
Sequence of VHL–Elongin C–Elongin B ternary complex (VCB) (P40337 54-213 limits assumed): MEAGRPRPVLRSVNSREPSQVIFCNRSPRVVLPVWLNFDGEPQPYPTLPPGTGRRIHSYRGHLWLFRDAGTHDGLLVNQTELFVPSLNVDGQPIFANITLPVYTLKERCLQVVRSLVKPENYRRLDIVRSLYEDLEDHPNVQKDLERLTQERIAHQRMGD
Sequence of VHL–Elongin C–Elongin B ternary complex (VCB) (Q15369 17-112 partner limits assumed): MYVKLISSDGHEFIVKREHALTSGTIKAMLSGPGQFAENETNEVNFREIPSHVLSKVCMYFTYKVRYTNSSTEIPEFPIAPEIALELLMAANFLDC
Sequence of VHL–Elongin C–Elongin B ternary complex (VCB) (Q15370 1-104 partner limits assumed): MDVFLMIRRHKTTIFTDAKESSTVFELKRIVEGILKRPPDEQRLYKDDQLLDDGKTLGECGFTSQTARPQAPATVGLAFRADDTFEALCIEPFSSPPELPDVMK

Sequence of CRBN's C-terminal thalidomide binding domain (CRBN-TBD) (Q96SW2 318-426 limits assumed): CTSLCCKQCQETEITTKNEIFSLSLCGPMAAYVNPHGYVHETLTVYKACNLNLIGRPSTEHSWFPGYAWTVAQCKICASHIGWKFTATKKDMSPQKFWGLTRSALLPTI

| SMILES | global H3K4me2 level [3] | binding to WDR5 (ITC, in words) [1] | IKZF1/IKZF3 degradation (immunoblot) [6] | PDX tumor growth compared to vehicle [7] | detected concentrations in plasma and tumor samples post-treatment [8] | also measured |
| --- | --- | --- | --- | --- | --- | --- |
| CN1CCN(c2ccc(-c3cccc(CN4CCN(CCNC(=O)CCCCCCCNc5cccc6c5C(=O)N(C5CCC(=O)N(C)C5=O)C6=O)CC4)c3)cc2NC(=O)c2c[nH]c(=O)cc2C(F)(F)F)CC1 (stereo not shown) [MS40N1] | but not OICR-9429 or MS40N1 | – | – | – | – | fold lower binding affinity to WDR5 compared to OICR-9429 ([1]; ITC): 4 fold; Kd ([1]; read-out: KD, binding affinity to WDR5, ITC, 25 °C, mean ± SD of three experiments): 130 ± 1 nM; KD, affinity to CRBN-TBD ([2]; 25 °C, mean ± SD): no binding was observed; gene-expression changes compared to DMSO (RNA-seq) [4]: did not result in significant gene-expression changes; WDR5 degradation in panel of cell lines [5]: did not induce notable WDR5 reduction |
| O=C(CCCCCCCNc1cccc2c1C(=O)N(C1CCC(=O)NC1=O)C2=O)NCCN1CCN(Cc2cccc(-c3ccc(N4CCOCC4)c(NC(=O)c4c[nH]c(=O)cc4C(F)(F)F)c3)c2)CC1 (stereo not shown) [MS40N2] | – | not bind WDR5 | induced degradation of IKZF1 and IKZF3 | no detected inhibitory effects on PDX tumor growth | higher than those of MS40 | binding to CRBN (ITC, in words) [2]: bind CRBN with a similar affinity as MS40 |
| Nc1cccc2c1C(=O)N(C1CCC(=O)NC1=O)C2=O (stereo not shown) [pomalidomide] | did not affect global H3K4me2 | – | led to degradation of IKZF1/3 | – | – | LIMD1 degradation (immunoblot) [9]: but not LIMD1; anti-proliferative effect in BT549 and SUM149 [10]: unaffected; Kd [11]: 16 ± 4 µM |
| CN1CCN(c2ccc(-c3cccc(CN4CCOCC4)c3)cc2NC(=O)c2c[nH]c(=O)cc2C(F)(F)F)CC1 [OICR-9429] | but not OICR-9429 or MS40N1 | – | – | – | – | – |
| Cc1ncsc1-c1ccc(CNC(=O)[C@@H]2C[C@@H](O)CN2C(=O)[C@@H](NC(=O)CCCCCCCCCC(=O)NCCN2CCN(Cc3cccc(-c4ccc(N5CCN(C)CC5)c(NC(=O)c5c[nH]c(=O)cc5C(F)(F)F)c4)c3)CC2)C(C)(C)C)cc1 [MS169] | – | comparable binding affinities to WDR5 and E3 ligase | without affecting IKZF1/3 | no detected inhibitory effects on PDX tumor growth | higher than those of MS40 | binding to E3 ligase (ITC, in words) [12]: comparable binding affinities to WDR5 and E3 ligase |
